One block for each compound: values may come before it.
What was measured:
Type in all cases: binding
[1] = target: T1, T-cell-originated protein kinase (TOPK) (Homo sapiens, UniProt Q96KB5); experiment: biochemical
T1 construct: gene PBK
T1 sequence (Q96KB5 1-322): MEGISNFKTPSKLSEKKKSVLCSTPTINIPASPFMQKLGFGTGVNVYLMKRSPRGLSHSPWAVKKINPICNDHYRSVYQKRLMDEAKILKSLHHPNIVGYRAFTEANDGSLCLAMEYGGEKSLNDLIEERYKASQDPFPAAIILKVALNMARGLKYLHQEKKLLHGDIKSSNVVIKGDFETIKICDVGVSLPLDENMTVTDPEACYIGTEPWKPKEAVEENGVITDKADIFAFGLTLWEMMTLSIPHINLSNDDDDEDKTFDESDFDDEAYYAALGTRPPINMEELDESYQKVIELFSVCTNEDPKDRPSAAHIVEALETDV

[2] = target: T1, T-cell-originated protein kinase (TOPK); experiment: microscale thermophoresis with labeled recombinant TOPK; also in vitro kinase assay (histone H3 phosphorylation); conditions: read-out: Dissociation constant with TOPK / Kd^b
[3] = target: T1, T-cell-originated protein kinase (TOPK); experiment: microscale thermophoresis with labeled recombinant TOPK (reference inhibitor); conditions: read-out: Dissociation constant with TOPK / Kd^b
[4] = read-out: Dissociation constant with TOPK / Kd^b

Kd [1, 4]: 226 ± 29.5 µM
Compound: CC(=O)Nc1ccc(OCC(O)CNC(C)C)cc1 (centres unmarked) [Practolol]

Compound: O=C(O)c1cc(/N=N/c2ccc(S(=O)(=O)Nc3ccccn3)cc2)ccc1O [Sulfasalazine]
Kd [1]: 339 ± 7.7 µM

Kd [2]: 24.2 ± 2.3 µM
Compound: COc1ccnc(C[S+]([O-])c2nc3ccc(OC(F)F)cc3[nH]2)c1OC (centres unmarked) [Pantoprazole]

Kd [3]: 327 ± 62.7 µM
Compound: N#Cc1c2nc3ccccc3nc2n2ccc(NC(=O)c3cccs3)cc12 [HI-TOPK-032]

Compound: NC(CO)C(=O)NNCc1ccc(O)c(O)c1O (centres unmarked) [Benserazide]
Kd [1, 4]: 477 ± 19.9 µM
